Experimental data: patent EP0361341A2, “Therapeutics for aids based on inhibitors of HIV protease” (MILES INC., priority 1988, dated 1990)

Test system: HIV-I
Assay: p24 antigen capture assay in HIV-I infected H9 lymphocytes (in vivo assay of HIV protease activity, Example 53)
Format: cell-based
Settings: H9 lymphocytes infected with HIV-I, three days at 37 C, relative to infected, untreated cultures; read-out: concentration showing 50% inhibition of p24 formation
Method: A p24 capture assay (see Example 50 hereinbelow) provides an "in vivo" method for determining HIV-protease activity. The inhibitor is added to cells infected with HIV, […]. Inhibition of propagation of HIV-protease in cells is measured by the absence or presence of p24, which is generated by HIV protease.
H9 lymphocytes (1x 10^7 cells/ml) were incubated in the presence or absence of HIV-I for 1 hour at 37 C. Cells were washed thoroughly to remove unadsorbed virions and resuspended at 4x10^5 cells/ml in culture medium. Aliquots (one milliliter) were placed in wells of 24 well culture plates containing an equal volume of test compound (diluted in culture medium). After incubation for three days at 37 C, cell density of uninfected cultures was determined to assess toxicity of test compound. A p24 antigen capture assay was used to determine the level of HIV infection in HIV treated cultures. The ability of test compounds to inhibit HIV replication was measured at different concentrations of test compound relative to infected, untreated cultures.

IC50: 200 µM
SMILES: CC[C@H](C)[C@H](NC(=O)[C@@H]1CCCN1CC(Cc1ccccc1)NC(=O)[C@H](CC(N)=O)NC(=O)[C@H](Cc1ccccc1)NC(=O)OC(C)(C)C)C(=O)OCc1ccccc1 (stereo partly drawn) [Example 25, N-[N-[2-[[N2-[N-[(1,1-Dimethylethoxy)carbonyl]-L-phenylalanyl]-L-asparagyl]amino]-3-phenylpropyl]-L-prolyl]-L-isoleucinbenzylester]
